Experimental data taken from PubChem BioAssay AID2060326 (Molecular Pharmacology Branch, DTP, NCI, 2025).
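Also: spheroids exposed to agents for seven days; 100% = DMSO vehicle control viability.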

What follows are compounds tested on MDA-MB-468 multi-cell spheroids, viability (assay: Anticancer human tumor MDA-MB-468 cell line growth inhibition [IpAb]). Details: second compound 1 µM; first compound 0.1 µM; active compounds read low.
How it was run: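 Multi-cell spheroids of 60% tumour cells, 25% HUVEC and 15% MSC in ultra-low-attachment U-bottom wells, treated with agents combined with ipatasertib or abemaciclib. Half-log ranges top out near clinical Cmax, or 10 microM when Cmax is unknown.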
`Cn1nccc1Nc1nccc(-c2ccn(C(CO)c3ccc(Cl)c(F)c3)c(=O)c2)n1` (stereo not drawn) + CC(C)NCC(C(=O)N1CCN(c2ncnc3c2C(C)CC3O)CC1)c1ccc(Cl)cc1 was tested, and the viability, T/C was 56%. Compound `C=CC(=O)N1CCN(c2nc(=O)n(-c3c(C)ccnc3C(C)C)c3nc(-c4c(O)cccc4F)c(F)cc23)C(C)C1` (stereo not drawn) + CCN1CCN(Cc2ccc(Nc3ncc(F)c(-c4cc(F)c5nc(C)n(C(C)C)c5c4)n3)nc2)CC1 has a viability, T/C of 73%. `Cn1nccc1Nc1nccc(-c2ccn(C(CO)c3ccc(Cl)c(F)c3)c(=O)c2)n1` (stereo not drawn) + CCN1CCN(Cc2ccc(Nc3ncc(F)c(-c4cc(F)c5nc(C)n(C(C)C)c5c4)n3)nc2)CC1 showed a viability, T/C of 78.8%. Work on `C=CCn1c(=O)c2cnc(Nc3ccc(N4CCN(C)CC4)cc3)nc2n1-c1cccc(C(C)(C)O)n1` + CCN1CCN(Cc2ccc(Nc3ncc(F)c(-c4cc(F)c5nc(C)n(C(C)C)c5c4)n3)nc2)CC1 yielded a viability, T/C of 79.5%.

Same assay, conditions: second compound 1 µM; first compound 0.316 µM; active compounds read low
With `Cn1ncc(Cl)c1-c1cc(C(=O)NC(CN)Cc2cccc(F)c2)sc1Cl` (stereo not drawn) + CC(C)NCC(C(=O)N1CCN(c2ncnc3c2C(C)CC3O)CC1)c1ccc(Cl)cc1 the viability, T/C was 36.3%. Compound `Cn1nccc1Nc1nccc(-c2ccn(C(CO)c3ccc(Cl)c(F)c3)c(=O)c2)n1` (stereo not drawn) + CC(C)NCC(C(=O)N1CCN(c2ncnc3c2C(C)CC3O)CC1)c1ccc(Cl)cc1 has a viability, T/C of 51.3%. `C=CC(=O)N1CCN(c2nc(=O)n(-c3c(C)ccnc3C(C)C)c3nc(-c4c(O)cccc4F)c(F)cc23)C(C)C1` (stereo not drawn) + CCN1CCN(Cc2ccc(Nc3ncc(F)c(-c4cc(F)c5nc(C)n(C(C)C)c5c4)n3)nc2)CC1 gave a viability, T/C of 81.8%. Compound `Cn1nccc1Nc1nccc(-c2ccn(C(CO)c3ccc(Cl)c(F)c3)c(=O)c2)n1` (stereo not drawn) + CCN1CCN(Cc2ccc(Nc3ncc(F)c(-c4cc(F)c5nc(C)n(C(C)C)c5c4)n3)nc2)CC1 has a viability, T/C of 74.5%. `C=CCn1c(=O)c2cnc(Nc3ccc(N4CCN(C)CC4)cc3)nc2n1-c1cccc(C(C)(C)O)n1` + CCN1CCN(Cc2ccc(Nc3ncc(F)c(-c4cc(F)c5nc(C)n(C(C)C)c5c4)n3)nc2)CC1 was tested, and the viability, T/C was 63.5%.

Same assay, conditions: second compound 1 µM; first compound 1 µM; active compounds read low
Work on `Cn1ncc(Cl)c1-c1cc(C(=O)NC(CN)Cc2cccc(F)c2)sc1Cl` (stereo not drawn) + CC(C)NCC(C(=O)N1CCN(c2ncnc3c2C(C)CC3O)CC1)c1ccc(Cl)cc1 yielded a viability, T/C of 28.4%. For `Cn1nccc1Nc1nccc(-c2ccn(C(CO)c3ccc(Cl)c(F)c3)c(=O)c2)n1` (stereo not drawn) + CC(C)NCC(C(=O)N1CCN(c2ncnc3c2C(C)CC3O)CC1)c1ccc(Cl)cc1, the viability, T/C was 42%. `C=CC(=O)N1CCN(c2nc(=O)n(-c3c(C)ccnc3C(C)C)c3nc(-c4c(O)cccc4F)c(F)cc23)C(C)C1` (stereo not drawn) + CCN1CCN(Cc2ccc(Nc3ncc(F)c(-c4cc(F)c5nc(C)n(C(C)C)c5c4)n3)nc2)CC1 showed a viability, T/C of 82.7%. `Cn1nccc1Nc1nccc(-c2ccn(C(CO)c3ccc(Cl)c(F)c3)c(=O)c2)n1` (stereo not drawn) + CCN1CCN(Cc2ccc(Nc3ncc(F)c(-c4cc(F)c5nc(C)n(C(C)C)c5c4)n3)nc2)CC1 was tested, and the viability, T/C was 85.9%. `C=CCn1c(=O)c2cnc(Nc3ccc(N4CCN(C)CC4)cc3)nc2n1-c1cccc(C(C)(C)O)n1` + CCN1CCN(Cc2ccc(Nc3ncc(F)c(-c4cc(F)c5nc(C)n(C(C)C)c5c4)n3)nc2)CC1 showed a viability, T/C of 6.76%.

Same assay, conditions: second compound 1 µM; first compound 3.16 µM; active compounds read low
`Cn1ncc(Cl)c1-c1cc(C(=O)NC(CN)Cc2cccc(F)c2)sc1Cl` (stereo not drawn) + CC(C)NCC(C(=O)N1CCN(c2ncnc3c2C(C)CC3O)CC1)c1ccc(Cl)cc1 gave a viability, T/C of 12.6%. Work on `Cn1nccc1Nc1nccc(-c2ccn(C(CO)c3ccc(Cl)c(F)c3)c(=O)c2)n1` (stereo not drawn) + CC(C)NCC(C(=O)N1CCN(c2ncnc3c2C(C)CC3O)CC1)c1ccc(Cl)cc1 yielded a viability, T/C of 16.4%. `C=CC(=O)N1CCN(c2nc(=O)n(-c3c(C)ccnc3C(C)C)c3nc(-c4c(O)cccc4F)c(F)cc23)C(C)C1` (stereo not drawn) + CCN1CCN(Cc2ccc(Nc3ncc(F)c(-c4cc(F)c5nc(C)n(C(C)C)c5c4)n3)nc2)CC1 showed a viability, T/C of 74.7%. In the case of `Cn1nccc1Nc1nccc(-c2ccn(C(CO)c3ccc(Cl)c(F)c3)c(=O)c2)n1` (stereo not drawn) + CCN1CCN(Cc2ccc(Nc3ncc(F)c(-c4cc(F)c5nc(C)n(C(C)C)c5c4)n3)nc2)CC1, the viability, T/C is reported as 64.2%. Work on `C=CCn1c(=O)c2cnc(Nc3ccc(N4CCN(C)CC4)cc3)nc2n1-c1cccc(C(C)(C)O)n1` + CCN1CCN(Cc2ccc(Nc3ncc(F)c(-c4cc(F)c5nc(C)n(C(C)C)c5c4)n3)nc2)CC1 yielded a viability, T/C of 2.84%.

Same assay, conditions: second compound 1 µM; first compound 10 µM; active compounds read low
`Cn1ncc(Cl)c1-c1cc(C(=O)NC(CN)Cc2cccc(F)c2)sc1Cl` (stereo not drawn) + CC(C)NCC(C(=O)N1CCN(c2ncnc3c2C(C)CC3O)CC1)c1ccc(Cl)cc1 was tested, and the viability, T/C was 0.12%. In the case of `Cn1nccc1Nc1nccc(-c2ccn(C(CO)c3ccc(Cl)c(F)c3)c(=O)c2)n1` (stereo not drawn) + CC(C)NCC(C(=O)N1CCN(c2ncnc3c2C(C)CC3O)CC1)c1ccc(Cl)cc1, the viability, T/C is reported as 0.2%. For `C=CC(=O)N1CCN(c2nc(=O)n(-c3c(C)ccnc3C(C)C)c3nc(-c4c(O)cccc4F)c(F)cc23)C(C)C1` (stereo not drawn) + CCN1CCN(Cc2ccc(Nc3ncc(F)c(-c4cc(F)c5nc(C)n(C(C)C)c5c4)n3)nc2)CC1, the viability, T/C was 39.6%. `Cn1nccc1Nc1nccc(-c2ccn(C(CO)c3ccc(Cl)c(F)c3)c(=O)c2)n1` (stereo not drawn) + CCN1CCN(Cc2ccc(Nc3ncc(F)c(-c4cc(F)c5nc(C)n(C(C)C)c5c4)n3)nc2)CC1 was tested, and the viability, T/C was 15.3%. `C=CCn1c(=O)c2cnc(Nc3ccc(N4CCN(C)CC4)cc3)nc2n1-c1cccc(C(C)(C)O)n1` + CCN1CCN(Cc2ccc(Nc3ncc(F)c(-c4cc(F)c5nc(C)n(C(C)C)c5c4)n3)nc2)CC1 showed a viability, T/C of 1.01%.

Same assay, conditions: second compound 3.16 µM; first compound 0.0316 µM; active compounds read low
`Cn1ncc(Cl)c1-c1cc(C(=O)NC(CN)Cc2cccc(F)c2)sc1Cl` (stereo not drawn) + CC(C)NCC(C(=O)N1CCN(c2ncnc3c2C(C)CC3O)CC1)c1ccc(Cl)cc1 showed a viability, T/C of 31.8%. In the case of `Cn1nccc1Nc1nccc(-c2ccn(C(CO)c3ccc(Cl)c(F)c3)c(=O)c2)n1` (stereo not drawn) + CC(C)NCC(C(=O)N1CCN(c2ncnc3c2C(C)CC3O)CC1)c1ccc(Cl)cc1, the viability, T/C is reported as 38.6%.

Same assay, conditions: second compound 3.16 µM; first compound 0.1 µM; active compounds read low
With `Cn1ncc(Cl)c1-c1cc(C(=O)NC(CN)Cc2cccc(F)c2)sc1Cl` (stereo not drawn) + CC(C)NCC(C(=O)N1CCN(c2ncnc3c2C(C)CC3O)CC1)c1ccc(Cl)cc1 the viability, T/C was 36.1%. In the case of `Cn1nccc1Nc1nccc(-c2ccn(C(CO)c3ccc(Cl)c(F)c3)c(=O)c2)n1` (stereo not drawn) + CC(C)NCC(C(=O)N1CCN(c2ncnc3c2C(C)CC3O)CC1)c1ccc(Cl)cc1, the viability, T/C is reported as 38.9%.

Same assay, conditions: second compound 3.16 µM; first compound 0.316 µM; active compounds read low
`Cn1ncc(Cl)c1-c1cc(C(=O)NC(CN)Cc2cccc(F)c2)sc1Cl` (stereo not drawn) + CC(C)NCC(C(=O)N1CCN(c2ncnc3c2C(C)CC3O)CC1)c1ccc(Cl)cc1 was tested, and the viability, T/C was 31.5%. For `Cn1nccc1Nc1nccc(-c2ccn(C(CO)c3ccc(Cl)c(F)c3)c(=O)c2)n1` (stereo not drawn) + CC(C)NCC(C(=O)N1CCN(c2ncnc3c2C(C)CC3O)CC1)c1ccc(Cl)cc1, the viability, T/C was 37%.

Same assay, conditions: second compound 3.16 µM; first compound 1 µM; active compounds read low
In the case of `Cn1ncc(Cl)c1-c1cc(C(=O)NC(CN)Cc2cccc(F)c2)sc1Cl` (stereo not drawn) + CC(C)NCC(C(=O)N1CCN(c2ncnc3c2C(C)CC3O)CC1)c1ccc(Cl)cc1, the viability, T/C is reported as 21.3%. In the case of `Cn1nccc1Nc1nccc(-c2ccn(C(CO)c3ccc(Cl)c(F)c3)c(=O)c2)n1` (stereo not drawn) + CC(C)NCC(C(=O)N1CCN(c2ncnc3c2C(C)CC3O)CC1)c1ccc(Cl)cc1, the viability, T/C is reported as 23.4%.

Same assay, conditions: second compound 3.16 µM; first compound 3.16 µM; active compounds read low
With `Cn1ncc(Cl)c1-c1cc(C(=O)NC(CN)Cc2cccc(F)c2)sc1Cl` (stereo not drawn) + CC(C)NCC(C(=O)N1CCN(c2ncnc3c2C(C)CC3O)CC1)c1ccc(Cl)cc1 the viability, T/C was 10.8%. Compound `Cn1nccc1Nc1nccc(-c2ccn(C(CO)c3ccc(Cl)c(F)c3)c(=O)c2)n1` (stereo not drawn) + CC(C)NCC(C(=O)N1CCN(c2ncnc3c2C(C)CC3O)CC1)c1ccc(Cl)cc1 has a viability, T/C of 5.84%.

Same assay, conditions: second compound 3.16 µM; first compound 10 µM; active compounds read low
With `Cn1ncc(Cl)c1-c1cc(C(=O)NC(CN)Cc2cccc(F)c2)sc1Cl` (stereo not drawn) + CC(C)NCC(C(=O)N1CCN(c2ncnc3c2C(C)CC3O)CC1)c1ccc(Cl)cc1 the viability, T/C was 0.37%. With `Cn1nccc1Nc1nccc(-c2ccn(C(CO)c3ccc(Cl)c(F)c3)c(=O)c2)n1` (stereo not drawn) + CC(C)NCC(C(=O)N1CCN(c2ncnc3c2C(C)CC3O)CC1)c1ccc(Cl)cc1 the viability, T/C was 0.17%.

Same assay, conditions: second compound 10 µM; first compound 0.0316 µM; active compounds read low
With `Cn1ncc(Cl)c1-c1cc(C(=O)NC(CN)Cc2cccc(F)c2)sc1Cl` (stereo not drawn) + CC(C)NCC(C(=O)N1CCN(c2ncnc3c2C(C)CC3O)CC1)c1ccc(Cl)cc1 the viability, T/C was 18.8%. With `Cn1nccc1Nc1nccc(-c2ccn(C(CO)c3ccc(Cl)c(F)c3)c(=O)c2)n1` (stereo not drawn) + CC(C)NCC(C(=O)N1CCN(c2ncnc3c2C(C)CC3O)CC1)c1ccc(Cl)cc1 the viability, T/C was 18.8%.

Same assay, conditions: second compound 10 µM; first compound 0.1 µM; active compounds read low
For `Cn1ncc(Cl)c1-c1cc(C(=O)NC(CN)Cc2cccc(F)c2)sc1Cl` (stereo not drawn) + CC(C)NCC(C(=O)N1CCN(c2ncnc3c2C(C)CC3O)CC1)c1ccc(Cl)cc1, the viability, T/C was 20.4%. Work on `Cn1nccc1Nc1nccc(-c2ccn(C(CO)c3ccc(Cl)c(F)c3)c(=O)c2)n1` (stereo not drawn) + CC(C)NCC(C(=O)N1CCN(c2ncnc3c2C(C)CC3O)CC1)c1ccc(Cl)cc1 yielded a viability, T/C of 15.8%.

Same assay, conditions: second compound 10 µM; first compound 0.316 µM; active compounds read low
`Cn1ncc(Cl)c1-c1cc(C(=O)NC(CN)Cc2cccc(F)c2)sc1Cl` (stereo not drawn) + CC(C)NCC(C(=O)N1CCN(c2ncnc3c2C(C)CC3O)CC1)c1ccc(Cl)cc1 was tested, and the viability, T/C was 17.4%. Compound `Cn1nccc1Nc1nccc(-c2ccn(C(CO)c3ccc(Cl)c(F)c3)c(=O)c2)n1` (stereo not drawn) + CC(C)NCC(C(=O)N1CCN(c2ncnc3c2C(C)CC3O)CC1)c1ccc(Cl)cc1 has a viability, T/C of 19%.

Same assay, conditions: second compound 10 µM; first compound 1 µM; active compounds read low
Compound `Cn1ncc(Cl)c1-c1cc(C(=O)NC(CN)Cc2cccc(F)c2)sc1Cl` (stereo not drawn) + CC(C)NCC(C(=O)N1CCN(c2ncnc3c2C(C)CC3O)CC1)c1ccc(Cl)cc1 has a viability, T/C of 17.4%. Compound `Cn1nccc1Nc1nccc(-c2ccn(C(CO)c3ccc(Cl)c(F)c3)c(=O)c2)n1` (stereo not drawn) + CC(C)NCC(C(=O)N1CCN(c2ncnc3c2C(C)CC3O)CC1)c1ccc(Cl)cc1 has a viability, T/C of 9.63%.

Same assay, conditions: second compound 10 µM; first compound 3.16 µM; active compounds read low
For `Cn1ncc(Cl)c1-c1cc(C(=O)NC(CN)Cc2cccc(F)c2)sc1Cl` (stereo not drawn) + CC(C)NCC(C(=O)N1CCN(c2ncnc3c2C(C)CC3O)CC1)c1ccc(Cl)cc1, the viability, T/C was 1.85%. `Cn1nccc1Nc1nccc(-c2ccn(C(CO)c3ccc(Cl)c(F)c3)c(=O)c2)n1` (stereo not drawn) + CC(C)NCC(C(=O)N1CCN(c2ncnc3c2C(C)CC3O)CC1)c1ccc(Cl)cc1 showed a viability, T/C of 1.96%.

Same assay, conditions: second compound 10 µM; first compound 10 µM; active compounds read low
In the case of `Cn1ncc(Cl)c1-c1cc(C(=O)NC(CN)Cc2cccc(F)c2)sc1Cl` (stereo not drawn) + CC(C)NCC(C(=O)N1CCN(c2ncnc3c2C(C)CC3O)CC1)c1ccc(Cl)cc1, the viability, T/C is reported as 0.18%. `Cn1nccc1Nc1nccc(-c2ccn(C(CO)c3ccc(Cl)c(F)c3)c(=O)c2)n1` (stereo not drawn) + CC(C)NCC(C(=O)N1CCN(c2ncnc3c2C(C)CC3O)CC1)c1ccc(Cl)cc1 gave a viability, T/C of 0.26%.
